Laboratory results as given in US20220409617A1, “Drug Formulations and Methods of Treatment for Metabolic Disorders” (The Regents of the University of California, priority 2019, published 2022).

System: diet-induced obesity
Experiment: Weight loss intervention study in HFD-fed mice
Type: in vivo
Description: Given its ability to correct HFD-induced mitochondrial fragmentation in vivo, sphingolipid-like compound 893 was evaluated as an interventional therapy for diet-induced obesity. Six-week old male, C57BL/6J mice were fed the HFD for 45 days; an age-matched cohort of control mice was maintained on the SD throughout the study. After 45 days, the average body weight of HFD-fed mice was approximately 130% that of chow-fed mice (FIGS. 15 to 17). Using quantitative nuclear magnetic resonance imaging, fat mass represented 21% of the body weight of mice that had consumed the HFD for 45 days and 12% of body weight in controls fed the standard diet; changes in lean body mass were of lesser magnitude (FIG. 17). At this point, HFD-fed mice were randomly assigned to receive vehicle (water), 60 mg/kg, or 120 mg/kg sphingolipid-like compound 893 by gavage; SD mice were treated with vehicle. Based on the increased activity of mice during the dark cycle (ZT12-ZT24) and the plasma pharmacokinetics of orally administered sphingolipid-like compound 893 (see FIG. 12), mice were treated at ZT8.5 on Mondays, Wednesdays, and Fridays. […] In the group receiving 120 mg/kg sphingolipid-like compound 893, the rate of weight loss slowed after 10 days. […] Despite continued treatment with the high dose of sphingolipid-like compound 893, weight loss plateaued once body weight matched that of SD controls (FIGS. 16 and 18). […] As in a prior report where mice were dosed 5-7 days a week for 11 weeks (S. M. Kim, et al., 2016, cited supra), sphingolipid-like compound 893 was well-tolerated, and the behavior of sphingolipid-like compound 893-treated mice was overtly normal throughout the study.
All animal experiments were performed in accordance with the Institutional Animal Care and Use Committee of University of California, Irvine. Male mice were used in all experiments. C57BL/6J mice (stock no 000664) and ob/ob mice (stock no 000632) were purchased from the Jackson Laboratory and were acclimated for 7 days prior to beginning experiments. Mice were housed under a 12:12 h light-dark cycle at 20-22° C. in groups of 4-5. Cages contained ⅛″ corncob bedding (7092A, Envigo, Huntingdon, UK) enriched with ˜6 g of cotton fiber nestlets (Ancare Corp., Bellmore, N.Y.). Access to food and water was ad libitum unless otherwise specified. For HFD studies, 8 week old C57BL/6J males were randomly assigned to either a 45% kcal from fat diet (HFD; D12451, Research Diets Inc., New Brunswick, N.J.) or 10% kcal from fat diet designed to match D12451 for other components (SD; D12450B, Research Diets Inc). Mice were maintained on these diets for up to 22 weeks as indicated. Ob/ob mice were fed the vivarium stock diet which contained 16% kcal from fat (2020×, Envigo). Polypropylene feeding tubes (20 g×38 mm; Instech Laboratories Inc., Plymouth, Pa.) were utilized for gavage and dipped into a 1 g/ml sucrose solution immediately prior to treatment to induce salivation.
HFD-fed mice were randomly assigned to experimental groups receiving either vehicle (water) or sphingolipid-like compound 893 at 60 mg/kg or 120 mg/kg by oral gavage on Mondays, Wednesdays, and Fridays. Mice were maintained on the HFD throughout the study. The SD group was treated with vehicle on the same schedule. Group size was initially n=10; one animal from the 60 mg/kg group that was euthanized due to gavage error was excluded from the analysis making this group n=9. All treatments and measurements were performed between ZT8 and ZT10 unless otherwise noted. Body weight and food consumption were monitored Monday-Friday. Body composition was determined weekly in live animals using an EchoMRI™ Body Composition Analyzer (EchoMRI™ Corp., Singapore). Mice were euthanized and tissues collected 4 h after treatment. Where indicated, mice were fasted for 6 h.

CCCCCCCCc1ccc([C@H]2CCN[C@@H]2CO)cc1.Cl [compound 893]
Fat mass gain (HFD-fed mice, 60 mg/kg): gained fat mass at a similar rate to mice fed a standard diet | Body weight versus chow-fed controls (HFD-fed mice, 60 mg/kg by gavage Mon/Wed/Fri): no longer gained weight, but did not match chow-fed controls | Body weight change during treatment (HFD-fed mice, 60 mg/kg or 120 mg/kg by gavage Mon/Wed/Fri): dose-dependent weight loss | Body weight versus chow-fed controls (HFD-fed mice, 120 mg/kg by gavage Mon/Wed/Fri, after 2 weeks (6 doses)): no longer statistically different from that of mice continuously fed a standard chow diet | Tolerability (HFD-fed mice, 60 or 120 mg/kg Mon/Wed/Fri): well-tolerated | Body composition underlying weight loss (fat mass, lean mass) (HFD-fed mice, 60 or 120 mg/kg, EchoMRI): a decline in fat mass with little change in lean mass | Reduction of body weight (HFD-fed wild type mice, six doses of 120 mg/kg over 2 weeks): 10%
